In the NIST ThermoML archive (doi:10.1021/je100552a):

Columns and labels:
[1] = xn = mol fraction of the nth substance listed; conditions: 101 kPa, Liquid; for viscosity: Capillary tube (Ostwald / Ubbelohde) method
[2] = refractive index (Na D-line) (dimensionless); xn = mol fraction of the nth substance listed; conditions: 101 kPa, Liquid, Standard Abbe refractometry

Brc1ccccc1 [bromobenzene] + ClCCCl
Conditions	refractive index, 298.15 K	refractive index, 303.15 K	refractive index, 308.15 K	refractive index, 313.15 K	viscosity, 298.15 K [mPa·s]	viscosity, 303.15 K [mPa·s]	viscosity, 308.15 K [mPa·s]	viscosity, 313.15 K [mPa·s]
[1], x2 = 0.1014	–	–	–	–	1.041	0.9749	0.9162	0.8463
[1], x2 = 0.2002	–	–	–	–	1.004	0.9388	0.8809	0.8155
[1], x2 = 0.3004	–	–	–	–	0.9677	0.904	0.8474	0.787
[1], x2 = 0.3999	–	–	–	–	0.9348	0.8714	0.815	0.7607
[1], x2 = 0.5008	–	–	–	–	0.9036	0.8409	0.7839	0.7355
[1], x2 = 0.6001	–	–	–	–	0.8752	0.8141	0.7583	0.712
[1], x2 = 0.6999	–	–	–	–	0.8496	0.7886	0.7321	0.6917
[1], x2 = 0.7995	–	–	–	–	0.8268	0.7646	0.711	0.6728
[1], x2 = 0.8998	–	–	–	–	0.8058	0.7445	0.6904	0.6569
[2], x2 = 0.1014	1.5479	1.5439	1.5412	1.5372	–	–	–	–
[2], x2 = 0.2002	1.5398	1.5355	1.5321	1.5279	–	–	–	–
[2], x2 = 0.3004	1.5313	1.5266	1.5227	1.5182	–	–	–	–
[2], x2 = 0.3999	1.5218	1.517	1.5128	1.5079	–	–	–	–
[2], x2 = 0.5008	1.5107	1.506	1.5015	1.4967	–	–	–	–
[2], x2 = 0.6001	1.4984	1.494	1.4893	1.4849	–	–	–	–
[2], x2 = 0.6999	1.4847	1.4808	1.4761	1.4722	–	–	–	–
[2], x2 = 0.7995	1.4704	1.4671	1.4622	1.459	–	–	–	–
[2], x2 = 0.8998	1.4559	1.4528	1.4479	1.4452	–	–	–	–

mass density [kg/m3], [1], Vibrating tube method
Conditions	x2 = 0.1014	x2 = 0.2002	x2 = 0.3004	x2 = 0.3999	x2 = 0.5008	x2 = 0.6001	x2 = 0.6999	x2 = 0.7995	x2 = 0.8998
298.15 K	1469.57	1449.41	1428.09	1406.01	1382.5	1358.18	1332.44	1305.43	1276.72
303.15 K	1461.55	1441.65	1420.51	1398.59	1375.26	1351.21	1325.77	1299.12	1270.73
308.15 K	1455.77	1435.38	1413.75	1391.37	1367.54	1342.97	1317.02	1289.84	1260.96
313.15 K	1447.63	1427.53	1406.26	1384.19	1360.71	1336.5	1310.92	1284.14	1255.65

Clc1ccccc1 [chlorobenzene] + ClCCCl
Conditions	mass density, [1] [kg/m3]	refractive index, [2]	viscosity, [1] [mPa·s]
298.15 K, x2 = 0.1022	1111.56	1.5149	0.7456
298.15 K, x2 = 0.2015	1123.05	1.508	0.7387
298.15 K, x2 = 0.3013	1135.29	1.5012	0.7351
298.15 K, x2 = 0.4039	1148.64	1.4935	0.7364
298.15 K, x2 = 0.4999	1161.91	1.486	0.7372
298.15 K, x2 = 0.5977	1176.36	1.4781	0.741
298.15 K, x2 = 0.6986	1192.24	1.4696	0.7445
298.15 K, x2 = 0.8	1209.3	1.4607	0.7536
298.15 K, x2 = 0.899	1227.12	1.4516	0.7659
303.15 K, x2 = 0.1022	1106.04	1.512	0.7146
303.15 K, x2 = 0.2015	1117.48	1.5052	0.7049
303.15 K, x2 = 0.3013	1129.68	1.4983	0.6991
303.15 K, x2 = 0.4039	1142.96	1.4908	0.6969
303.15 K, x2 = 0.4999	1156.2	1.4832	0.6963
303.15 K, x2 = 0.5977	1170.62	1.4752	0.6973
303.15 K, x2 = 0.6986	1186.46	1.4666	0.6975
303.15 K, x2 = 0.8	1203.48	1.4576	0.7009
303.15 K, x2 = 0.899	1221.28	1.4484	0.71
308.15 K, x2 = 0.1022	1100.15	1.509	0.6659
308.15 K, x2 = 0.2015	1111.22	1.5022	0.6595
308.15 K, x2 = 0.3013	1123.02	1.4951	0.6542
308.15 K, x2 = 0.4039	1135.91	1.4873	0.6505
308.15 K, x2 = 0.4999	1148.68	1.4797	0.6506
308.15 K, x2 = 0.5977	1162.62	1.4715	0.65
308.15 K, x2 = 0.6986	1177.92	1.4626	0.6493
308.15 K, x2 = 0.8	1194.4	1.4534	0.653
308.15 K, x2 = 0.899	1211.62	1.444	0.6574
313.15 K, x2 = 0.1022	1094.68	1.5049	0.619
313.15 K, x2 = 0.2015	1105.79	1.4983	0.6151
313.15 K, x2 = 0.3013	1117.62	1.4915	0.6143
313.15 K, x2 = 0.4039	1130.48	1.4838	0.6119
313.15 K, x2 = 0.4999	1143.37	1.4763	0.6125
313.15 K, x2 = 0.5977	1157.36	1.4682	0.6158
313.15 K, x2 = 0.6986	1172.73	1.4595	0.6191
313.15 K, x2 = 0.8	1189.28	1.4503	0.6241
313.15 K, x2 = 0.899	1206.59	1.441	0.6314
